{
  "source": "patent US8709747B2",
  "about": "“Biphotonic photosensitizers, nanoparticles containing the same and their use as drugs” (Centre National de la Recherche Scientifique, priority 2009, dated 2014)",
  "key": {"[1]": {"assay": "Photophysical properties (absorption, emission, fluorescence) in solution or dispersion", "format": "physicochemical", "settings": "for Φf (fluorescence quantum yield): relative to quinine in 0.5 M H2SO4; for Φ / εmax / λmax^abs / λmax^em / quantum yield for fluorescence: in ethanol; for quantum yield for fluorescence: orange emission"}, "[2]": {"assay": "Two-photon absorption cross section", "format": "physicochemical", "settings": "for two-photon absorption cross section: at 720 nm; for λmax^TPA / σ2^max: table titled in ethanol"}, "[3]": {"assay": "Quantum yield for singlet oxygen generation", "format": "physicochemical", "settings": "in toluene"}, "[4]": {"settings": "spectral range of interest; Drobizhev et al.; cited from earlier work"}},
  "data": [
    {"compound": "CCCCC1(CCCC)c2cc(C#Cc3ccc(/C=C/c4ccc(N(CC)CCO)cc4)s3)ccc2-c2ccc(C#Cc3ccc(/C=C/c4ccc(N(CC)CCO)cc4)s3)cc21", "note": "[Photosensitizer 6a]", "values": [
      {"measurement": "Stokes shift", "setting": "[1]; AcOEt", "value": 4605, "unit": "cm⁻¹"},
      {"measurement": "knr (non-radiative decay rate)", "setting": "[1]; AcOEt", "value": "0.34 10^9 s^−1"},
      {"measurement": "kr (radiative decay rate)", "setting": "[1]; AcOEt", "value": "0.36 10^9 s^−1"},
      {"measurement": "r (fluorescence anisotropy)", "setting": "[1]; AcOEt", "value": 0.12},
      {"measurement": "λabs", "setting": "[1]; AcOEt", "value": 435, "unit": "nm"},
      {"measurement": "λem", "setting": "[1]; AcOEt", "value": 544, "unit": "nm"},
      {"measurement": "τ", "setting": "[1]; AcOEt", "value": 1.42, "unit": "ns"},
      {"measurement": "τo (radiative lifetime)", "setting": "[1]; AcOEt", "value": 2.77, "unit": "ns"},
      {"measurement": "Φf (fluorescence quantum yield)", "setting": "[1]; AcOEt", "value": 0.51},
      {"measurement": "Stokes shift", "setting": "[1]; Acetone", "value": 5950, "unit": "cm⁻¹"},
      {"measurement": "knr (non-radiative decay rate)", "setting": "[1]; Acetone", "value": "0.89 10^9 s^−1"},
      {"measurement": "kr (radiative decay rate)", "setting": "[1]; Acetone", "value": "0.25 10^9 s^−1"},
      {"measurement": "r (fluorescence anisotropy)", "setting": "[1]; Acetone", "value": 0.13},
      {"measurement": "λabs", "setting": "[1]; Acetone", "value": 437.5, "unit": "nm"},
      {"measurement": "λem", "setting": "[1]; Acetone", "value": 591.5, "unit": "nm"},
      {"measurement": "τ", "setting": "[1]; Acetone", "value": 0.88, "unit": "ns"},
      {"measurement": "τo (radiative lifetime)", "setting": "[1]; Acetone", "value": 4.02, "unit": "ns"},
      {"measurement": "Φf (fluorescence quantum yield)", "setting": "[1]; Acetone", "value": 0.22},
      {"measurement": "Stokes shift", "setting": "[1]; Bu2O", "value": 2700, "unit": "cm⁻¹"},
      {"measurement": "knr (non-radiative decay rate)", "setting": "[1]; Bu2O", "value": "0.45 10^9 s^−1"},
      {"measurement": "kr (radiative decay rate)", "setting": "[1]; Bu2O", "value": "0.56 10^9 s^−1"},
      {"measurement": "r (fluorescence anisotropy)", "setting": "[1]; Bu2O", "value": 0.19},
      {"measurement": "λabs", "setting": "[1]; Bu2O", "value": 433.5, "unit": "nm"},
      {"measurement": "λem", "setting": "[1]; Bu2O", "value": 491, "unit": "nm"},
      {"measurement": "τ", "setting": "[1]; Bu2O", "value": 0.99, "unit": "ns"},
      {"measurement": "τo (radiative lifetime)", "setting": "[1]; Bu2O", "value": 1.79, "unit": "ns"},
      {"measurement": "Φf (fluorescence quantum yield)", "setting": "[1]; Bu2O", "value": 0.55},
      {"measurement": "Stokes shift", "setting": "[1]; CH3CN", "value": 6355, "unit": "cm⁻¹"},
      {"measurement": "knr (non-radiative decay rate)", "setting": "[1]; CH3CN", "value": "0.92 10^9 s^−1"},
      {"measurement": "kr (radiative decay rate)", "setting": "[1]; CH3CN", "value": "0.05 10^9 s^−1"},
      {"measurement": "r (fluorescence anisotropy)", "setting": "[1]; CH3CN", "value": 0.21},
      {"measurement": "λabs", "setting": "[1]; CH3CN", "value": 436.5, "unit": "nm"},
      {"measurement": "λem", "setting": "[1]; CH3CN", "value": 604, "unit": "nm"},
      {"measurement": "τ", "setting": "[1]; CH3CN", "value": 1.03, "unit": "ns"},
      {"measurement": "τo (radiative lifetime)", "setting": "[1]; CH3CN", "value": 19.99, "unit": "ns"},
      {"measurement": "Φf (fluorescence quantum yield)", "setting": "[1]; CH3CN", "value": 0.052},
      {"measurement": "Stokes shift", "setting": "[1]; CHCl3", "value": 4035, "unit": "cm⁻¹"},
      {"measurement": "knr (non-radiative decay rate)", "setting": "[1]; CHCl3", "value": "0.43 10^9 s^−1"},
      {"measurement": "kr (radiative decay rate)", "setting": "[1]; CHCl3", "value": "0.39 10^9 s^−1"},
      {"measurement": "r (fluorescence anisotropy)", "setting": "[1]; CHCl3", "value": 0.15},
      {"measurement": "λabs", "setting": "[1]; CHCl3", "value": 431.5, "unit": "nm"},
      {"measurement": "λem", "setting": "[1]; CHCl3", "value": 522.5, "unit": "nm"},
      {"measurement": "τ", "setting": "[1]; CHCl3", "value": 1.22, "unit": "ns"},
      {"measurement": "τo (radiative lifetime)", "setting": "[1]; CHCl3", "value": 2.54, "unit": "ns"},
      {"measurement": "Φf (fluorescence quantum yield)", "setting": "[1]; CHCl3", "value": 0.48},
      {"measurement": "Stokes shift", "setting": "[1]; DCM", "value": 4870, "unit": "cm⁻¹"},
      {"measurement": "knr (non-radiative decay rate)", "setting": "[1]; DCM", "value": "0.27 10^9 s^−1"},
      {"measurement": "kr (radiative decay rate)", "setting": "[1]; DCM", "value": "0.42 10^9 s^−1"},
      {"measurement": "r (fluorescence anisotropy)", "setting": "[1]; DCM", "value": 0.10},
      {"measurement": "λabs", "setting": "[1]; DCM", "value": 433.5, "unit": "nm"},
      {"measurement": "λem", "setting": "[1]; DCM", "value": 549.5, "unit": "nm"},
      {"measurement": "τ", "setting": "[1]; DCM", "value": 1.43, "unit": "ns"},
      {"measurement": "τo (radiative lifetime)", "setting": "[1]; DCM", "value": 2.35, "unit": "ns"},
      {"measurement": "Φf (fluorescence quantum yield)", "setting": "[1]; DCM", "value": 0.61},
      {"measurement": "Stokes shift", "setting": "[1]; DMSO", "value": 6090, "unit": "cm⁻¹"},
      {"measurement": "knr (non-radiative decay rate)", "setting": "[1]; DMSO", "value": "1.94 10^9 s^−1"},
      {"measurement": "kr (radiative decay rate)", "setting": "[1]; DMSO", "value": "0.10 10^9 s^−1"},
      {"measurement": "r (fluorescence anisotropy)", "setting": "[1]; DMSO", "value": 0.28},
      {"measurement": "λabs", "setting": "[1]; DMSO", "value": 448.5, "unit": "nm"},
      {"measurement": "λem", "setting": "[1]; DMSO", "value": 617, "unit": "nm"},
      {"measurement": "τ", "setting": "[1]; DMSO", "value": 0.49, "unit": "ns"},
      {"measurement": "τo (radiative lifetime)", "setting": "[1]; DMSO", "value": 9.7, "unit": "ns"},
      {"measurement": "Φf (fluorescence quantum yield)", "setting": "[1]; DMSO", "value": 0.051},
      {"measurement": "Stokes shift", "setting": "[1]; THF", "value": 4865, "unit": "cm⁻¹"},
      {"measurement": "knr (non-radiative decay rate)", "setting": "[1]; THF", "value": "0.32 10^9 s^−1"},
      {"measurement": "kr (radiative decay rate)", "setting": "[1]; THF", "value": "0.34 10^9 s^−1"},
      {"measurement": "r (fluorescence anisotropy)", "setting": "[1]; THF", "value": 0.12},
      {"measurement": "λabs", "setting": "[1]; THF", "value": 437, "unit": "nm"},
      {"measurement": "λem", "setting": "[1]; THF", "value": 555, "unit": "nm"},
      {"measurement": "τ", "setting": "[1]; THF", "value": 1.51, "unit": "ns"},
      {"measurement": "τo (radiative lifetime)", "setting": "[1]; THF", "value": 2.93, "unit": "ns"},
      {"measurement": "Φf (fluorescence quantum yield)", "setting": "[1]; THF", "value": 0.51},
      {"measurement": "Stokes shift", "setting": "[1]; Toluene", "value": 2650, "unit": "cm⁻¹"},
      {"measurement": "knr (non-radiative decay rate)", "setting": "[1]; Toluene", "value": "0.56 10^9 s^−1"},
      {"measurement": "kr (radiative decay rate)", "setting": "[1]; Toluene", "value": "0.52 10^9 s^−1"},
      {"measurement": "r (fluorescence anisotropy)", "setting": "[1]; Toluene", "value": 0.16},
      {"measurement": "λabs", "setting": "[1]; Toluene", "value": 436, "unit": "nm"},
      {"measurement": "λem", "setting": "[1]; Toluene", "value": 493, "unit": "nm"},
      {"measurement": "τ", "setting": "[1]; Toluene", "value": 0.93, "unit": "ns"},
      {"measurement": "τo (radiative lifetime)", "setting": "[1]; Toluene", "value": 1.94, "unit": "ns"},
      {"measurement": "Φf (fluorescence quantum yield)", "setting": "[1]; Toluene", "value": 0.48},
      {"measurement": "Φ", "setting": "[1]", "value": 0.65},
      {"measurement": "εmax", "setting": "[1]", "value": "1.04 10^5 M^−1cm^−1"},
      {"measurement": "λmax^abs", "setting": "[1]", "value": 432, "unit": "nm"},
      {"measurement": "λmax^em", "setting": "[1]", "value": 561, "unit": "nm"},
      {"measurement": "quantum yield for fluorescence", "setting": "[1]", "value": 65, "unit": "%"},
      {"measurement": "two-photon absorption cross section", "setting": "[2]", "value": 1340, "unit": "GM"},
      {"measurement": "λmax^TPA", "setting": "[2]", "value": 730, "unit": "nm"},
      {"measurement": "σ2^max", "setting": "[2]", "value": 1204, "unit": "GM"},
      {"measurement": "quantum yield for singulet oxygen generation", "setting": "[3]", "value": 22, "unit": "%"}
    ]},
    {"compound": "CCN(CCO)c1ccc(/C=C/c2ccc(C#Cc3ccc4c(c3)C(CCOCCOCCOC)(CCOCCOCCOC)c3cc(C#Cc5ccc(/C=C/c6ccc(N(CC)CCO)cc6)s5)ccc3-4)s2)cc1", "note": "[Photosensitizer 6b]", "values": [
      {"measurement": "Φ", "setting": "[1]", "value": 0.33},
      {"measurement": "εmax", "setting": "[1]", "value": "0.98 10^5 M^−1cm^−1"},
      {"measurement": "λmax^abs", "setting": "[1]", "value": 434, "unit": "nm"},
      {"measurement": "λmax^em", "setting": "[1]", "value": 575, "unit": "nm"},
      {"measurement": "quantum yield for fluorescence", "setting": "[1]", "value": 65, "unit": "%"},
      {"measurement": "two-photon absorption cross section", "setting": "[2]", "value": 1530, "unit": "GM"},
      {"measurement": "λmax^TPA", "setting": "[2]", "value": 730, "unit": "nm"},
      {"measurement": "σ2^max", "setting": "[2]", "value": 1530, "unit": "GM"},
      {"measurement": "quantum yield for singulet oxygen generation", "setting": "[3]", "value": 22, "unit": "%"}
    ]},
    {"compound": "C1=Cc2nc1c(-c1ccccc1)c1ccc([nH]1)c(-c1ccccc1)c1nc(c(-c3ccccc3)c3ccc([nH]3)c2-c2ccccc2)C=C1", "note": "[tetraphenylporphine]", "values": [
      {"measurement": "two-photon absorption (TPA) cross-section", "setting": "[4]", "value": 15, "unit": "GM"}
    ]}
  ]
}
